Laboratory results reported in publication PMC7595621, “Quorum sensing N-Acyl homoserine lactones are a new class of anti-schistosomal” (PLoS Neglected Tropical Diseases, 2020).
Values after ≈ are worked out from the molar mass of the structure shown. Like-named read-outs stand apart in the source and are kept apart here.

Tests used:
[1] = Cell cytotoxicity assay (MTT); assay type: cell-based, human; conditions: human, HepG2 cells, MTT, 95% confidence interval, called EC50
Procedure: The cytotoxicity of each compound was assessed on human HepG2 cells as described previously [17]. Briefly, 2 x 10^4 cells/well were seeded in black walled 96-well microtiter plates (Fisher Scientific, Loughborough, UK) and incubated for 24 hr at 37°C in a humidified atmosphere containing 5% CO2. […] Following a further incubation for 24 hr, the MTT assay was performed as previously described [17, 27]. Dose response curves were obtained by non-linear regression, after log transformation of concentrations and data normalization using GraphPad Prism 7.02.

E. coli ATCC 25922 = test: Broth microdilution MIC and IC50 determination, E. coli; assay type: cell-based; conditions: Escherichia coli; for MIC: ATCC25922, 24 h, 24 hr
Procedure: S. aureus ATCC 29213 and E. coli ATCC 25922 were cultured in Luria-Bertani (LB) medium at 37°C with aeration at 200 rpm for 24 hr, with all procedures performed in a biosafety level 2 (BSL2) cabinet. Stationary phase cultures were then used for minimum inhibitory concentration (MIC) determination using the broth microdilution method, in fresh LB medium, in a 96-well plate. All compounds were tested in triplicate using an initial bacterial concentration of 5.0 × 10^5 colony forming units (CFU)/mL at a final concentration of 125 mg/L (5% and 2.5% v/v methanol). Compounds with no visible growth at 125 mg/L were further evaluated with progressing dilutions. […] Dilutions were repeated in three independent experiments where the optical density (OD600) was measured in a Hidex plate spectrophotometer and absorbance data used for the calculation of an IC50 value. The IC50 value was obtained from a dose response titration (125–0.09 mg/L). Dose response curves were obtained by non-linear regression, after log transformation of concentrations and data normalization using GraphPad Prism 7.02.
As Compound 1 was structurally similar to N-acyl homoserine lactones, a compound class involved in bacterial quorum sensing, we decided to assess its antimicrobial activity and determine if enantiomer separation or lactone ring substitution would change this activity.

S. mansoni schistosomula = test: Screening of S. mansoni schistosomula (Roboworm, motility and phenotype); assay type: cell-based, Schistosoma mansoni; conditions: for Selectivity index, schistosomula motility: HepG2 CC50 / schistosomula motility EC50; for Selectivity index, schistosomula phenotype: HepG2 CC50 / schistosomula phenotype EC50; for EC50: Schistosoma mansoni, average across motility and phenotype, read-out: average EC50 for phenotype and motility, schistosomula; for concentrations at which schistosomula phenotype was affected / concentrations at which schistosomula motility was affected: titration 10 to 0.625 μM; for concentrations at which schistosomula phenotype was affected: hit below -0.15; for concentrations at which schistosomula motility was affected: hit below -0.35
Procedure: Biomphalaria glabrata (NMRI and the previously described pigmented strains) snails infected with S. mansoni (Puerto Rican strain) were shed for 2 hrs under light at 26 °C. Cercariae were collected, mechanically transformed into schistosomula and subsequently prepared for high throughput screening (HTS) on the Roboworm platform as previously described. Schistosomula were cultured in Basch Media (composed of BME media, 10% M169 media, 0.5x MEM vitamins, 10% Schneider’s insect media, 15.6mM Hepes, 5% heat inactivated FBS, 2x Antibiotic/anti-mycotic (Sigma-Aldrich, UK) solution (final concentrations shown)).
EC50 values were calculated from the titrated concentrations by non-linear regression, after log transformation of concentrations and data normalization using GraphPad Prism 7.02.
Fig 2 Anti-schistosomula activity of the eight analogues compared to parent compound 1. […] Test plates were incubated at 37°C for 72 hrs in an atmosphere containing 5% CO2. At 72hrs, schistosomula were scored using the Roboworm platform for both motility (A) and phenotype (B). Any compound that induced a score of below -0.35 for motility (A) and -0.15 for phenotype (B) were considered a hit. Black squares indicate the most positive effect on motility or phenotype; grey scale from dark grey to lighter shades of grey indicates a progressive reduced compound efficacy; white squares indicate no effect on either phenotype or motility. Z´ values for this screen was 0.41741 for motility and 0.57275 for phenotype. (C) Phenotypes of schistosomula when treated with 10μM of each of the test compounds and controls.
Supplementary file pntd.0008630.s003.tif: S1 Fig Initial schistosomula screens of the 14 compounds and their intermediate analogues. […] Test plates were incubated at 37°C for 72 hrs in an atmosphere containing 5% CO2. At 72hrs, schistosomula were scored using the Roboworm platform for both motility and phenotype as previously described. A) Of the 14 compounds evaluated, two fell within the hit region. Z’ scores for motility and phenotype were 0.40079 and 0.56846 respectively. […] Z´ scores for motility and phenotype were 0.37864 and 0.47882 respectively. *Average EC50 value across motility and phenotype is presented for each compound. (TIF) Click here for additional data file.

[2] = test system: adult S. mansoni worm pairs; test: Screening of adult S. mansoni blood flukes (7-week worms), WHO-TDR motility scoring; assay type: cell-based, Schistosoma mansoni; conditions: for Selectivity index, adult worm female: HepG2 CC50 / adult female EC50; for Selectivity index, adult worm male: HepG2 CC50 / adult male EC50; for EC50: Schistosoma mansoni
Procedure: Adult S. mansoni parasites were recovered by hepatic portal vein perfusion from TO outbred mice (HsdOla:TO, Tuck-Ordinary, Envigo, UK) that were percutaneously infected seven weeks earlier with 180 cercariae. Three adult worm pairs per well, in duplicate, were transferred into 48 well plates (Fisher Scientific, Loughborough, UK) and cultured at 37 °C in an atmosphere containing 5% CO2 in DMEM (Gibco, Paisley, UK) containing 10% v/v HEPES, 10% v/v Foetal Bovine Serum (FBS), 0.7% v/v 200 mM L-Glutamine and 1X v/v penicillin-streptomycin. Worms were dosed with test compounds at 20 μM, 10 μM, 5 μM, 2.5 μM, 1.25 μM and 0.625 μM (in 0.2% DMSO) for 72 hr. Adult worms were scored manually at 72 hr using the WHO-TDR metric scoring system as described previously. Dose response curves and EC50 values were obtained by non-linear regression, after log transformation of concentrations and data normalization using GraphPad Prism 7.02. At 72 hr, the medium from each well was also collected, centrifuged at 350 x g for 2 min. Afterwards, the supernatant was removed, and the remaining egg pellet re-suspended in 10% v/v formalin. Eggs that were oval and contained a fully formed lateral spine were subsequently counted.
Fig 3 Adult schistosome motility and egg production are differentially affected by the nine N-acyl homoserine lactones. […] Parasite motility was evaluated for each sex and scored using the WHO-TDR scoring system (0 = Dead parasite, 4 = Normal/Healthy movement). B) Culture media were collected from some adult co-cultures at 72 hrs and eggs present in the media were counted. p values are indicated as follows: * <0.05, ** <0.01, *** <0.001.
Initially, these screens were conducted at 20 μM; any compounds that scored a 1 or 0 for motility at this primary concentration were further titrated until no further effect was observed. […] Similar to the schistosomula assays, the differences observed in adult parasite motility when treated with the (R)- and (S)- enantiomers of Compound 1 were striking. […] Estimated EC50s for male and female parasites for these two enantiomers were determined (Table 2), with Compound 5 ((R)- enantiomer) having greater activity than Compound 6 ((S)- enantiomer).

[3] = 7-week worms, 72 hr, motility, 95% confidence interval, read-out: ADULT WORM EC50 Female
[4] = 7-week worms, 72 hr, motility, 95% confidence interval, read-out: ADULT WORM EC50 Male

Compound | CC50 at 24 h [1] | MIC (E. coli ATCC 25922; no visible growth) | MIC (E. coli ATCC 25922; value in square brackets) | effect on schistosomula motility and phenotype metrics in initial screen (S. mansoni schistosomula; 10 μM, 72 hrs) | Selectivity index, schistosomula motility (S. mansoni schistosomula) | Selectivity index, schistosomula phenotype (S. mansoni schistosomula) | EC50 (S. mansoni schistosomula; 72 hrs) | concentrations at which schistosomula phenotype was affected (S. mansoni schistosomula; 72 hrs) | concentrations at which schistosomula motility was affected (S. mansoni schistosomula; 72 hrs) | good compound effect on schistosomula observed down to a concentration (S. mansoni schistosomula; titration of initial hits, S1B Fig) | Selectivity index, adult worm female [2] | Selectivity index, adult worm male [2] | EC50 [2, 3] | EC50 [2, 4] | IC50 (E. coli ATCC 25922; ATCC25922, Table 3, OD600, three independent experiments, 95% confidence interval in parentheses) | significant reduction in adult worm motility observed down to ([2]; 72 hr) | EC50 ([2]; sex not stated (abstract), read-out: adult worms EC50)
O=C(CBr)NC1CCOC1=O (centres unmarked) [Compound 1, 2-bromo-N-(2-oxotetrahydrofuran-3-yl)acetamide] | 43.5 µM | 125 µg/mL | 563 µM | negatively affected both schistosomula motility and phenotype metrics | 11.5 | 7.9 | 4.7 µM | from 10 to 1.25 | all concentrations tested | 1.25 µM | 5.2 | 5.3 | 8.3 µM | 8.2 µM | – | – | –
O=C(CBr)NC1CCSC1=O (centres unmarked) [Compound 3, 2-bromo-N-(2-oxotetrahydrothiophen-3-yl)acetamide] | 18.7 µM | 62.5 µg/mL | 262 µM | – | 9.8 | 8.1 | 2.1 µM | all concentrations tested | all concentrations tested | – | 4.8 | 4.5 | 3.9 µM | 4.2 µM | 52.7 µg/mL (≈ 221 µM) | 5 µM | 4.8 µM
